Ends that are not written are not given here.
B1: En-MAP1: protein of 549 amino acids from an endophyte of Empetrum nigrum, GenBank accession number KC466596 (protein, listed as Empetrum nigrum)
chain: MRLVAHPVPDAPLYALMIKACSMGIPQPNDNLWKPRNPLLAKEEKTSKRGRTAPDTERALDLFREMTLRYNIRPTAEVYTAIIAACVKRDDMYDKGFGLFKKMVELERNRMSSEGHDSTSFAPTRATYNALLRGCARNKDLLRARWILAEMLRTAQAKWQEFMEKSKKGEEGVQEWELLEVEEMRPDTNTMAFLFYTYASHTTSSKAVPETEGKKELEGKAEERASEVTSVSPVSEPPEPMDESKLVYSLPTSSQAILREVTSLLDRIKSDQGQQSNLLSSVQINSKLLNSYIAVLSAHCRSSQVVERISEVVVGTKENPKSLFEETGTSVNGYTCFTVIDACGMMEHSPDTYHLACEMWQRWLSLVENATFHRENPLKAKEIGLDSRTISDCWSAMIRLHAKYNQVDEAMKLVHEFARLYPPASLFNSLTFEPSSTSSSSLSPRKGVQEISPLFSSTSLTHSIRGRDISRIQNTMSQDPTLQFRAVQILHLRLVELETRPKDLAYLSWLLKSYEHQLQPKRPKSLQGDLFTSRQAAYNRIVQQRTSSR

Tests used:
[1] = test system: S. aureus; conditions: ATCC 25923
Protocol: (§1) Minimum inhibition concentrations (MICs) were determined against Escherichia coli (ATCC 25922), Staphylococcus aureus (ATCC 25923), Klebsiella pneumoniae (ATCC 10031) and Pseudomonas aeruginosa (ATCC 27853). Also clinical strains of E. coli, K. pneumoniae, E. cloacae, P. aeruginosa, Serratia marcescens, Proteus mirabilis, S. pneumoniae, Acinetobacter baumannii, A. johnsonii and S. aureus were used for MICs assays. Additionally, clinical strains of yeast including Candida albicans, C. glabrata, C. parapsilosis and C. quillermondiae were used. The susceptibility of these microorganisms to Chain peptides were determined using micro broth dilution assay. Colonies of the respective microorganism from Muller Hinton (MH) agar plates incubated overnight were suspended in MH broth media and final concentration of microorganism was adjusted to 5.0×10^5 cfu/ml. An aliquot of 10 μl of each Chain peptide, or gentamicin, tetracycline as reference antibiotics were added in differing concentrations along with 90 μl of bacterial suspension to 96 well polypropylene plates and incubated at 37° C. for 20 to 24 hours. Concentrations of Chain peptides and reference antibiotics ranged from 0.125 to 128 μg/ml and the MICs were recorded as the lowest concentration with no visual growth of bacteria. Similarly, antifungal MICs were tested in Potato dextrose broth.

[2] = test system: E. coli; conditions: ATCC 25922
Protocol: as §1

[3] = test system: Staphylococcus aureus (ATCC 25923); assay: microbe, parasite or virus in culture; assay type: cell-based; conditions: ATCC 25923
Protocol: as §1

[4] = test system: Klebsiella pneumoniae (ATCC 10031); assay: microbe, parasite or virus in culture; assay type: cell-based; conditions: ATCC 10031
Protocol: as §1

[5] = test system: Escherichia coli (ATCC 25922); assay: microbe, parasite or virus in culture; assay type: cell-based; conditions: ATCC 25922
Protocol: as §1

[6] = test system: Pseudomonas aeruginosa (ATCC 27853); assay: microbe, parasite or virus in culture; assay type: cell-based; conditions: ATCC 27853
Protocol: as §1

[7] = test system: S. aureus; assay: Antibacterial activity analysis of En-MAP1 protein; assay type: cell-based, Staphylococcus aureus
Protocol: Both folded and unfolded proteins were tested for antibacterial activity against S. aureus by pipetting 10 μg of protein on the S. aureus culture on an LB plate. The activity was also tested in folded and unfolded protein digested with trypsin in 0.01% acetic acid at concentrations of 30 and 60 μg/ml.
The gene En-MAP1 was then cloned into the expression plasmid pET23(b) to analyze whether the antibacterial activity was due to the protein itself. The resulting construct pET23(b)-FosS1A contained the En-MAP1 gene in-frame. When transformed into E. coli expression strain BL21 (DE3) pLyseS and BL21 (DE3) pRARE, a protein of approximately 63 kDa (predicted mass 63.3 kDa) was produced in the cell extracts of induced, but not in the uninduced cultures. The resulting protein includes the amino acid sequence […]- prior to the first amino acid of the protein sequence. The protein was expressed in both strains as inclusion bodies and they were purified and folded in a His-Trap column, resulting in about ˜1 mg of pure folded protein.

Molecule | Minimal inhibitory concentration (MIC), S. aureus [1] [µM] | Minimal inhibitory concentration (MIC), E. coli [2] [µM] | Minimum inhibitory concentration, Staphylococcus aureus (ATCC 25923) [3] [µg/mL] | Minimum inhibitory concentration, Klebsiella pneumoniae (ATCC 10031) [4] [µg/mL] | Minimum inhibitory concentration, Escherichia coli (ATCC 25922) [5] [µg/mL] | Minimum inhibitory concentration, Pseudomonas aeruginosa (ATCC 27853) [6] [µg/mL] | Antibacterial activity against S. aureus ([7]; expressed, folded protein) | Antibacterial activity against S. aureus after trypsin digestion ([7]; folded full protein digested with trypsin, data not shown) | Antibacterial activity against S. aureus after trypsin digestion ([7]; trypsin digest of the unfolded protein)
NRIVQQRTSSR [Chain200] | 95 | 95 | >128 | >128 | >128 | >128 |  |  | 
B1 |  |  |  |  |  |  | no activity was observed | antibacterial activity was observed | No activity was detected

Source: patent US10457709B2, “Antimicrobial peptides, their variants and uses” (priority 2015, dated 2019)
